Calls of active or inactive are those of the source. The rule behind the calls is not given here. Residues, ends and D or L forms follow the SMILES beside them.
Assays:
[1] = molecular target: T1, Relaxin receptor 1 (Homo sapiens) (UniProt Q9HBX9); experiment: Activation of RXFP1 expressed in HEK-293T cells assessed as induction of cAMP accumulation after 6 hrs by beta galactosidase reporter gene assay; type: functional, cell-based
T1 sequence (whole entry): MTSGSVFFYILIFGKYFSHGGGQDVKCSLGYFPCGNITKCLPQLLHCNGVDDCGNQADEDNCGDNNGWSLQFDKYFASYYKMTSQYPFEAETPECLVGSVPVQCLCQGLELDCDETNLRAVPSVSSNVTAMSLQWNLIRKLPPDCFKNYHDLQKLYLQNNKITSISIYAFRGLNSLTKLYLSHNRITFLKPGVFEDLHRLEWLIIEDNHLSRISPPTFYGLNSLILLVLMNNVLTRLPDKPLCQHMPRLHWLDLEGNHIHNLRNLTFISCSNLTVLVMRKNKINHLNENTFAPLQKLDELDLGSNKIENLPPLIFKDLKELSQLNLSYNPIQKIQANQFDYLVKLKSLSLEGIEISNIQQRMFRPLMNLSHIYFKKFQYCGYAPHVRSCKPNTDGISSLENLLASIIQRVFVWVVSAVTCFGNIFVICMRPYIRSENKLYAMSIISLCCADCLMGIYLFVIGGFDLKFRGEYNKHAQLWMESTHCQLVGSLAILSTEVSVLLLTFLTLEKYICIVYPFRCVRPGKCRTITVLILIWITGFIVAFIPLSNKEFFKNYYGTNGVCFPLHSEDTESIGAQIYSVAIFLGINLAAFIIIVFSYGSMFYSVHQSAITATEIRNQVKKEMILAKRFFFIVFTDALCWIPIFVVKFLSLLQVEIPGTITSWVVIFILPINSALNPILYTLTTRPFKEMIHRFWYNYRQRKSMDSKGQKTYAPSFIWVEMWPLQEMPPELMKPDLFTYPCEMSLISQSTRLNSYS

Relaxin-3 receptor 2 = Relaxin-3 receptor 2 (Homo sapiens, UniProt Q8TDU9); experiment: Agonist activity at RXFP4 expressed in CHO-K1 cells assessed as inhibition of forskolin-induced cAMP accumulation after 6 hrs by beta galactosidase reporter gene assay; type: functional, cell-based
Sequence of Relaxin-3 receptor 2 (Q8TDU9 whole entry): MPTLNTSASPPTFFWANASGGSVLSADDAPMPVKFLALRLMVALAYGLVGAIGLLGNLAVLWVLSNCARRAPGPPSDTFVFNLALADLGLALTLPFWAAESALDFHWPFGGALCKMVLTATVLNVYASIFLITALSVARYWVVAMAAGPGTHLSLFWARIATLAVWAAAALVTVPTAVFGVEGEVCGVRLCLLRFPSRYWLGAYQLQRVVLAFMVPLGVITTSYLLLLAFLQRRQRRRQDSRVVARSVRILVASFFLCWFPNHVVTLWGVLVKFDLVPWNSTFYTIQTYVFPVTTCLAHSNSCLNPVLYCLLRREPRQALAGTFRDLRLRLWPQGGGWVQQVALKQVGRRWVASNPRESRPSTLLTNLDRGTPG

Relaxin-3 receptor 1 [2] = molecular target: T2, Relaxin-3 receptor 1 (Homo sapiens, UniProt Q9NSD7); experiment: Agonist activity at RXFP3 expressed in CHO-K1 cells assessed as inhibition of forskolin-induced cAMP accumulation after 6 hrs by beta galactosidase reporter gene assay; type: functional, cell-based
T2 sequence (Q9NSD7 whole entry): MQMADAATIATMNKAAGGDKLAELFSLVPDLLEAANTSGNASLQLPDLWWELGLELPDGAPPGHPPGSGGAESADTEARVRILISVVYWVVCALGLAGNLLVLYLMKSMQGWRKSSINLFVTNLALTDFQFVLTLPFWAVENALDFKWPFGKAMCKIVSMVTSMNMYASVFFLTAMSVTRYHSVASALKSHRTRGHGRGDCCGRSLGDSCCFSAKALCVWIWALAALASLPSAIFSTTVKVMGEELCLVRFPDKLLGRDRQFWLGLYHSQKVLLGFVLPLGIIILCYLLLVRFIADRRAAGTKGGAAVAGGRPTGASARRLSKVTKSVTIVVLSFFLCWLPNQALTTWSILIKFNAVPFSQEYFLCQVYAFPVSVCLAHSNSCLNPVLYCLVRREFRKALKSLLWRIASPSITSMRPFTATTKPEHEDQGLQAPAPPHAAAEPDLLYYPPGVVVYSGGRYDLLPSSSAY

Relaxin-3 receptor 1 [3] = molecular target: T2, Relaxin-3 receptor 1; experiment: Displacement of europium-labelled H3 relaxin-B chain/INSL-5 chain from RXFP3 expressed in CHO-K1 cells; type: cell-based
Relaxin receptor 1 = molecular target: T3, Relaxin receptor 1 (Homo sapiens, UniProt Q9HBX9); experiment: Displacement of europium-labelled H2 relaxin from RXFP1 expressed in HEK-293T cells; type: cell-based
T3 sequence (Q9HBX9 whole entry): T1 sequence (whole entry)

| Compound | Ki (Relaxin-3 receptor 1 [3]) | other results |
| --- | --- | --- |
| CC[C@H](C)[C@@H]1NC(=O)[C@H](Cc2ccccc2)NC(=O)[C@H](CCC(=O)O)NC(=O)[C@H](CCCNC(=N)N)NC(=O)CNC(=O)[C@@H](N)CSSC[C@H](N)C(=O)N[C@@H](CCCCN)C(=O)N[C@@H](Cc2c[nH]c3ccccc23)C(=O)NCC(=O)N[C@@H](C)C(=O)N[C@@H](CO)C(=O)N[C@@H](CCCCN)C(=O)N[C@@H](CO)C(=O)N[C@@H](CCC(=O)O)C(=O)N[C@@H]([C@@H](C)CC)C(=O)N[C@@H](CO)C(=O)N[C@@H](CO)C(=O)N[C@@H](CC(C)C)C(=O)N[C@H](C(=O)O)CSSC[C@@H](C(=O)NCC(=O)NCC(=O)N[C@@H](CO)C(=O)N[C@@H](CCCNC(=N)N)C(=O)N[C@@H](Cc2c[nH]c3ccccc23)C(=O)O)NC(=O)[C@H]([C@@H](C)O)NC(=O)[C@H](Cc2ccccc2)NC(=O)[C@H]([C@@H](C)CC)NC(=O)[C@H](C(C)C)NC(=O)[C@H](C)NC(=O)[C@H](CCCNC(=N)N)NC1=O |  | pIC50 [1]: inactive |
| CC[C@H](C)[C@@H]1NC(=O)[C@H](Cc2ccccc2)NC(=O)[C@H](CCC(=O)O)NC(=O)[C@H](CCCNC(=N)N)NC(=O)CNC(=O)[C@@H](NC(=O)[C@H](CC(C)C)NC(=O)[C@@H](N)CCCNC(=N)N)CSSC[C@H](N)C(=O)N[C@@H](CCCCN)C(=O)N[C@@H](Cc2c[nH]c3ccccc23)C(=O)NCC(=O)N[C@@H](C)C(=O)N[C@@H](CO)C(=O)N[C@@H](CCCCN)C(=O)N[C@@H](CO)C(=O)N[C@@H](CCC(=O)O)C(=O)N[C@@H]([C@@H](C)CC)C(=O)N[C@@H](CO)C(=O)N[C@@H](CO)C(=O)N[C@@H](CC(C)C)C(=O)N[C@H](C(=O)O)CSSC[C@@H](C(=O)NCC(=O)NCC(=O)N[C@@H](CO)C(=O)N[C@@H](CCCNC(=N)N)C(=O)N[C@@H](Cc2c[nH]c3ccccc23)C(=O)O)NC(=O)[C@H]([C@@H](C)O)NC(=O)[C@H](Cc2ccccc2)NC(=O)[C@H]([C@@H](C)CC)NC(=O)[C@H](C(C)C)NC(=O)[C@H](C)NC(=O)[C@H](CCCNC(=N)N)NC1=O |  | pIC50 [1]: inactive |
| CC[C@H](C)[C@@H]1NC(=O)[C@H](Cc2ccccc2)NC(=O)[C@H](CCC(=O)O)NC(=O)[C@H](CCCN=C(N)N)NC(=O)CNC(=O)[C@@H](NC(=O)[C@H](CC(C)C)NC(=O)[C@@H](N)CCCN=C(N)N)CSSC[C@H](N)C(=O)N[C@@H](CCCCN)C(=O)N[C@@H](Cc2c[nH]c3ccccc23)C(=O)NCC(=O)N[C@@H](C)C(=O)N[C@@H](CO)C(=O)N[C@@H](CCCCN)C(=O)N[C@@H](CO)C(=O)N[C@@H](CCC(=O)O)C(=O)N[C@@H]([C@@H](C)CC)C(=O)N[C@@H](CO)C(=O)N[C@@H](CO)C(=O)N[C@@H](CC(C)C)C(=O)N[C@H](C(=O)O)CSSC[C@@H](C(=O)NCC(=O)NCC(=O)N[C@@H](CO)C(=O)N[C@@H](CCCN=C(N)N)C(=O)N[C@@H](Cc2c[nH]c3ccccc23)C(=O)O)NC(=O)[C@H]([C@@H](C)O)NC(=O)[C@H](Cc2ccccc2)NC(=O)[C@H]([C@@H](C)CC)NC(=O)[C@H](C(C)C)NC(=O)[C@H](C)NC(=O)[C@H](CCCN=C(N)N)NC1=O | 112 nM | IC50 (Relaxin-3 receptor 2): 7.94 nM; IC50 (Relaxin-3 receptor 1 [2]): 5.13 nM; Ki (Relaxin receptor 1): > 10000 nM |
| CC[C@H](C)[C@H](NC(=O)[C@H](Cc1ccccc1)NC(=O)[C@H](CCC(=O)O)NC(=O)[C@H](CCCNC(=N)N)NC(=O)CNC(=O)[C@H](CO)NC(=O)[C@H](CC(C)C)NC(=O)[C@H](CCCNC(=N)N)NC(=O)[C@@H](NC(=O)CNC(=O)[C@H](CS)NC(=O)[C@@H]1CCCN1C(=O)[C@H](C)NC(=O)[C@H](C)NC(=O)[C@@H](N)CCCNC(=N)N)C(C)C)C(=O)N[C@@H](CCCNC(=N)N)C(=O)N[C@@H](C)C(=O)N[C@H](C(=O)N[C@H](C(=O)N[C@@H](Cc1ccccc1)C(=O)N[C@@H](CS)C(=O)N[C@@H](CO)C(=O)NCC(=O)NCC(=O)N[C@@H](CO)C(=O)N[C@@H](CCCNC(=N)N)C(=O)N[C@@H](Cc1c[nH]c2ccccc12)C(=O)O)[C@@H](C)CC)C(C)C (H-RAAPCGVRLSGREFIRAVIFCSGGSRW-OH) | > 10000 nM |  |
| CC[C@H](C)[C@@H]1NC(=O)[C@H](Cc2ccccc2)NC(=O)[C@H](CCC(=O)O)NC(=O)[C@H](CCCN=C(N)N)NC(=O)CNC(=O)[C@@H](N)CSSC[C@H](N)C(=O)N[C@@H](CCCCN)C(=O)N[C@@H](Cc2c[nH]c3ccccc23)C(=O)NCC(=O)N[C@@H](C)C(=O)N[C@@H](CO)C(=O)N[C@@H](CCCCN)C(=O)N[C@@H](CO)C(=O)N[C@@H](CCC(=O)O)C(=O)N[C@@H]([C@@H](C)CC)C(=O)N[C@@H](CO)C(=O)N[C@@H](CO)C(=O)N[C@@H](CC(C)C)C(=O)N[C@H](C(=O)O)CSSC[C@@H](C(=O)NCC(=O)NCC(=O)N[C@@H](CO)C(=O)N[C@@H](CCCN=C(N)N)C(=O)N[C@@H](Cc2c[nH]c3ccccc23)C(=O)O)NC(=O)[C@H]([C@@H](C)O)NC(=O)[C@H](Cc2ccccc2)NC(=O)[C@H]([C@@H](C)CC)NC(=O)[C@H](C(C)C)NC(=O)[C@H](C)NC(=O)[C@H](CCCN=C(N)N)NC1=O |  | IC50 (Relaxin-3 receptor 2): 3.47 nM; Ki (Relaxin receptor 1): > 10000 nM |
| CC[C@H](C)[C@@H]1NC(=O)[C@H](Cc2ccccc2)NC(=O)[C@H](CCC(=O)O)NC(=O)[C@H](CCCNC(=N)N)NC(=O)CNC(=O)[C@@H](NC(=O)[C@H](CC(C)C)NC(=O)[C@H](CCCNC(=N)N)NC(=O)[C@@H](NC(=O)CN)C(C)C)CSSC[C@H](N)C(=O)N[C@@H](CCCCN)C(=O)N[C@@H](Cc2c[nH]c3ccccc23)C(=O)NCC(=O)N[C@@H](C)C(=O)N[C@@H](CO)C(=O)N[C@@H](CCCCN)C(=O)N[C@@H](CO)C(=O)N[C@@H](CCC(=O)O)C(=O)N[C@@H]([C@@H](C)CC)C(=O)N[C@@H](CO)C(=O)N[C@@H](CO)C(=O)N[C@@H](CC(C)C)C(=O)N[C@H](C(=O)O)CSSC[C@@H](C(=O)NCC(=O)NCC(=O)N[C@@H](CO)C(=O)N[C@@H](CCCNC(=N)N)C(=O)N[C@@H](Cc2c[nH]c3ccccc23)C(=O)O)NC(=O)[C@H]([C@@H](C)O)NC(=O)[C@H](Cc2ccccc2)NC(=O)[C@H]([C@@H](C)CC)NC(=O)[C@H](C(C)C)NC(=O)[C@H](C)NC(=O)[C@H](CCCNC(=N)N)NC1=O |  | pIC50 [1]: inactive; IC50 (Relaxin-3 receptor 2): 14.1 nM; Ki (Relaxin receptor 1): > 10000 nM |
| CC[C@H](C)[C@H](NC(=O)[C@@H](NC(=O)[C@H](C)NC(=O)[C@H](CCCN=C(N)N)NC(=O)[C@H](CS)NC(=O)[C@H](Cc1ccccc1)NC(=O)[C@H](CCC(=O)O)NC(=O)[C@H](CCCN=C(N)N)NC(=O)CNC(=O)[C@H](CO)NC(=O)[C@H](CC(C)C)NC(=O)[C@H](CCCN=C(N)N)NC(=O)[C@@H](NC(=O)CNC(=O)[C@H](Cc1ccc(O)cc1)NC(=O)[C@@H]1CCCN1C(=O)[C@H](C)NC(=O)[C@H](C)NC(=O)[C@@H](N)CCCN=C(N)N)C(C)C)C(C)C)C(=O)N[C@@H](Cc1ccccc1)C(=O)N[C@H](C(=O)N[C@@H](CS)C(=O)NCC(=O)NCC(=O)N[C@@H](CO)C(=O)N[C@@H](CCCN=C(N)N)C(=O)N[C@@H](Cc1c[nH]c2ccccc12)C(=O)O)[C@@H](C)O (H-RAAPYGVRLSGREFCRAVIFTCGGSRW-OH) | > 10000 nM |  |
| H-RAAPYGVRLSGREFIRAVIFTRGGSRW-OH | 3390 nM |  |

Now from value to compound, other results behind:

| Ki (Relaxin-3 receptor 1 [3]) | Compound | other results |
| --- | --- | --- |
| > 10000 nM | CC[C@H](C)[C@H](NC(=O)[C@H](CS)NC(=O)[C@H](CCC(=O)O)NC(=O)[C@H](CCCN=C(N)N)NC(=O)CNC(=O)[C@H](CS)NC(=O)[C@H](CC(C)C)NC(=O)[C@H](CCCN=C(N)N)NC(=O)[C@@H](NC(=O)CNC(=O)[C@H](Cc1ccc(O)cc1)NC(=O)[C@@H]1CCCN1C(=O)[C@H](C)NC(=O)[C@H](C)NC(=O)[C@@H](N)CCCN=C(N)N)C(C)C)C(=O)N[C@@H](CCCN=C(N)N)C(=O)N[C@@H](C)C(=O)N[C@@H](CS)C(=O)N[C@H](C(=O)N[C@@H](Cc1ccccc1)C(=O)N[C@H](C(=O)N[C@@H](CS)C(=O)NCC(=O)NCC(=O)N[C@@H](CO)C(=O)N[C@@H](CCCN=C(N)N)C(=O)N[C@@H](Cc1c[nH]c2ccccc12)C(=O)O)[C@@H](C)O)[C@@H](C)CC (H-RAAPYGVRLCGRECIRACIFTCGGSRW-OH) |  |
| 2570 nM | H-RAAPYGVRLSGREFIRAVIFTSRGGSRW-OH |  |
| > 10000 nM | H-RAAPYGVRLSGREFIRKVIFTSGGSRW-OH |  |
| 2090 nM | H-RAAPYGVRLSGREFIRAVIFTSRGSRW-OH |  |
| 2950 nM | H-RAAPYGVRLSGREFIRAVIFTSGGSRW-OH |  |
| 741 nM | H-RAAPYGVRLSGREFIRAVIFRSGGSRW-OH |  |
